Results published in publication PMC4640066 (Nature Communications, 2015).

Legend:
γ-TuSC = molecular target: T1, γ-TuSC (Saccharomyces cerevisiae, UniProt P53378); assay: γ-TuSC-stimulated MT polymerization in vitro; format: biochemical; conditions: same concentration as ineffective on glutamate, paclitaxel and Tau-induced MT formation
T1 construct: made in house; host or cells: HighFive insect cells
T1 sequence (P53378 1-473): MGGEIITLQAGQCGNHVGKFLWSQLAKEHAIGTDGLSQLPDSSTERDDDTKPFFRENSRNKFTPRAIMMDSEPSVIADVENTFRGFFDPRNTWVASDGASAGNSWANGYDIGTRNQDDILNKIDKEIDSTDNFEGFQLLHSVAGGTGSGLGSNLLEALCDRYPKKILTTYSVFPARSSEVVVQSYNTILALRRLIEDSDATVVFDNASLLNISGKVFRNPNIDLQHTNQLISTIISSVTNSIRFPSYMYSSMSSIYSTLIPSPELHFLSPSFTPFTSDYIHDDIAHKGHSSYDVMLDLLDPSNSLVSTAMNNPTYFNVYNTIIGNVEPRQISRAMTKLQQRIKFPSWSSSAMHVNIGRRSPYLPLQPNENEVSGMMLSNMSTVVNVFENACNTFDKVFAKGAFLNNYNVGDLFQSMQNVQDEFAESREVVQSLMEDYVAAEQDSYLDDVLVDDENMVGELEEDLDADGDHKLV
T1 sequence (P38863 1-823 partner): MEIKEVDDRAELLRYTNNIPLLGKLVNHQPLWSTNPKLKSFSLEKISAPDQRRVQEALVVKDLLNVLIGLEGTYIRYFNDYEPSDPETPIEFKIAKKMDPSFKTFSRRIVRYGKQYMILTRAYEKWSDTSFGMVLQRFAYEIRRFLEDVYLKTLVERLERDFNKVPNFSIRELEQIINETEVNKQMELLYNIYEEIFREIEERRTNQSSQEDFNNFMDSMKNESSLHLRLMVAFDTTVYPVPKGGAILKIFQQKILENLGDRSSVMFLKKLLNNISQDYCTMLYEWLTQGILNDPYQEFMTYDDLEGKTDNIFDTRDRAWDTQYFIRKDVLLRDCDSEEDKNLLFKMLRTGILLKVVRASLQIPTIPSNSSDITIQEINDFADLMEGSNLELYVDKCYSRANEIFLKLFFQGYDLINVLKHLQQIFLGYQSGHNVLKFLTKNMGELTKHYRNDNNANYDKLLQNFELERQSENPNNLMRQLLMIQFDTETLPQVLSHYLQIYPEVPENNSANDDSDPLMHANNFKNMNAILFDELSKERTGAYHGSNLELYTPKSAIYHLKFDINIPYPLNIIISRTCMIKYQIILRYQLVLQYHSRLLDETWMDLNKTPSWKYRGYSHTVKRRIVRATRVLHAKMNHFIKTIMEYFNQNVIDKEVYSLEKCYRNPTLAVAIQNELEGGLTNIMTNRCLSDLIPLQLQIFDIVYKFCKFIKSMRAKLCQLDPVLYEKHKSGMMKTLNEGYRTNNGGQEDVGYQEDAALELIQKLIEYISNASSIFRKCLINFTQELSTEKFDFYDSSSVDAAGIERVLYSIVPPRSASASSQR
T1 sequence (P53540 1-846 partner): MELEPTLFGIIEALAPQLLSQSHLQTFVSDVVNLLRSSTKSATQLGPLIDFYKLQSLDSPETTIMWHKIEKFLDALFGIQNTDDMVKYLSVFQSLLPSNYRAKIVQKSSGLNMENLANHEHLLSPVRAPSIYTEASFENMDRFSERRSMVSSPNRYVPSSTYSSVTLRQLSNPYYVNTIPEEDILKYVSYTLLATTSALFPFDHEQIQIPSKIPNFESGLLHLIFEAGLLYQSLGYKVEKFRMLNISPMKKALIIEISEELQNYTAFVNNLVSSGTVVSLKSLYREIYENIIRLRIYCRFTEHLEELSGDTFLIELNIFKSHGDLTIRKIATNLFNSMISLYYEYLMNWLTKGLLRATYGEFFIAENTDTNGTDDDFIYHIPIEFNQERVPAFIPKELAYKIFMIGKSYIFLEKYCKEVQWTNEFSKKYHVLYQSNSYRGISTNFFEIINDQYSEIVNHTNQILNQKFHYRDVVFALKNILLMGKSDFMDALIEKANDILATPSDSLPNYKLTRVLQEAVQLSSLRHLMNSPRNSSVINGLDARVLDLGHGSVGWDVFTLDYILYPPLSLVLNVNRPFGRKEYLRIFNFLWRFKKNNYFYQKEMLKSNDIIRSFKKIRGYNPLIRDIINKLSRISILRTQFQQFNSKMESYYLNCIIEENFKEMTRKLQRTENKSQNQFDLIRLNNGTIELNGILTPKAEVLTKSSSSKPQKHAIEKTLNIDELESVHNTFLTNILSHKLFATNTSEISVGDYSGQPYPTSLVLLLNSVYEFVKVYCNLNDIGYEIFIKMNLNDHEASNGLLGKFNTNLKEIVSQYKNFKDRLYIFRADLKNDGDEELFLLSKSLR
Description: For glutamate-stimulated MT polymerization, 1 mg ml^−1 porcine brain α/β-tubulin was mixed with glutamate (final concentration 1 M) and GTP (final concentration 1 mM) in RB buffer on ice. For paclitaxel-stimulated MT polymerization, 1 mg ml^−1 porcine brain α/β-tubulin was mixed with paclitaxel (final concentration 10 μM) and GTP (final concentration 1 mM) in RB buffer on ice. For recombinant Tau protein-stimulated MT polymerization, 1 mg ml^−1 α/β-tubulin purified from porcine brain and Tau protein were mixed with GTP (final concentration 1 mM) in RB buffer on ice. For γ-TuSC-stimulated MT polymerization, γ-TuSC was mixed with GTP (final concentration 1 mM). One of the compounds and α/β-tubulin were then added. Samples were transferred into cuvettes. Tubulin polymerization was monitored using the absorbance at 350 nm at 37 °C using a thermostatic spectrophotometer (Beckman Coulter).

HeLa cells = assay: Analysis of interphase MT network; format: cell-based, human; conditions: 100 μM, 2.5 h
Description: HeLa cells were cultured in DMEM containing 10% FBS in a humidified atmosphere containing 5% CO2. After treatment with each compound for 2.5 h (interphase MT network) or 5 h (mitotic spindle), the cells were immediately fixed with cold MeOH (−20 °C). After blocking with PBS containing 0.5% bovine serum albumin, cells were incubated with anti-α-tubulin antibodies (1:500 dilution, Santa Cruz, Cat# sc-32293) to observe interphase cells, or with anti-BubR1 (1:250 dilution, BD Bioscience, Cat# 612502) and anti-α-tubulin (1:250 dilution, MBL, Cat# PM054) antibodies to observe mitotic spindle. After staining with Alexa^488-conjugated anti-mouse IgG (1:2,000 dilution, Invitrogen, Cat#A11001) and Alexa568-conjugated anti-rabbit IgG (1:2000 dilution, Invitrogen, Cat#A11011), cells were washed four times with PBS and mounted with PBS containing 0.1 μg ml^−1 DAPI. MTs and BubR1 signals were observed under a Leica LAS AF 6000 fluorescence microscope (Leica Microsystems) or an LSM 700 laser-scanning confocal microscope (Zeiss).

Compound: COc1cc2c(=O)c(-c3cc(OC)c4c(c3OC)OCO4)coc2cc1OCc1ccccc1 [Gatastatin, O^7-demethylbenzyl AG1]
- Effect on γ-TuSC-stimulated MT polymerization (γ-TuSC): blocked γ-TuSC-stimulated MT polymerization
- Effect on interphase MT network (HeLa cells): did not obviously change the appearance of the interphase MT network
